Values after ≈ are worked out from the molar mass of the structure shown. Read-outs that look alike come from different tables or passages of the source.
Tests used:
[1] = test system: HepG2 cells; details: human, 48 h
[2] = test system: S. aureus; assay: Antimicrobial Susceptibility Test by Broth Microdilution, M07-A9 CLSI; assay type: cell-based; details: Staphylococcus aureus
[3] = test system: E. coli; assay: MIC panel of Gram-negative bacteria (Table 7); assay type: cell-based; details: Escherichia coli
[4] = test system: P. aeruginosa; assay: MIC panel of Gram-negative bacteria (Table 7); assay type: cell-based; details: Pseudomonas aeruginosa
[5] = test system: K. pneumoniae; assay: MIC panel of Gram-negative bacteria (Table 7); assay type: cell-based; details: Klebsiella pneumoniae
[6] = in vitro; details: human, CC50 (μg/mL)
[7] = test system: S. epidermidis; assay: Antimicrobial Susceptibility Test by Broth Microdilution, M07-A9 CLSI; assay type: cell-based; details: Staphylococcus epidermidis
[8] = test system: S. typhimurium; assay: MIC panel of Gram-negative bacteria (Table 7); assay type: cell-based; details: Salmonella enterica; EN0466 S. typhimurium G− TH6509
[9] = test system: A. baumanii; assay: MIC panel of Gram-negative bacteria (Table 7); assay type: cell-based
[10] = test system: K. oxytoca; assay: MIC panel of Gram-negative bacteria (Table 7); assay type: cell-based; details: Klebsiella oxytoca; EN0392 K. oxytoca G−
[11] = test system: mupirocin-resistant strains of Staphylococcus aureus; assay: MIC against mupirocin-resistant strains; assay type: cell-based; details: Staphylococcus aureus; S. aureus V55, mupirocin-resistant; read-out: MIC
Procedure: (§1) At first (Table 1), MIC is determined by broth micro-dilution method. The test medium is Antibiotic Medium 3 (AM3; Difco Ltd) mixed with Phosphate Buffered Saline (PBS) in proportions 1:1. Selected MIC values are verified using cation-adjusted Mueller Hinton Broth (MHB; BD). Cell concentration of tested pathogen is adjusted to between 3 and 5×10^5 cells per ml. To verify cell concentration of tested pathogen, viable cell counts are performed directly after each MIC-test by dilution method with PBS as a dilution solvent. Cells are counted on the agar plates with 50% strength Vegetable Peptone Broth (50% VPB; Oxoid Ltd) after 16 to 20 h of incubation at 37° C.
(§2) Cells of pathogen suspended in test medium are distributed to the wells and the plates are incubated for 16 to 20 h at 37° C. Negative controls are wells with the test medium only and positive controls are wells with the pathogen in test medium. The MIC is defined as the lowest concentration of each compound with no visible growth of pathogen.

[12] = test system: Micrococcus luteus; assay: MIC panel of Gram-negative bacteria (Table 7); assay type: cell-based; details: EN0455 Micrococcus luteus G+ PKL 3693
[13] = test system: S. pyogenes; assay: Antimicrobial Susceptibility Test by Broth Microdilution, M07-A9 CLSI; assay type: cell-based; details: Streptococcus pyogenes
[14] = in vitro; details: human, Caco-2
[15] = test system: E. faecium; assay: Antimicrobial Susceptibility Test by Broth Microdilution, M07-A9 CLSI; assay type: cell-based
[16] = test system: E. faecalis; assay: as above; assay type: cell-based; details: Enterococcus faecalis
[17] = test system: Staphylococcus aureus strain LMG15975; assay: MIC by broth micro-dilution, AM3/PBS 1:1; assay type: cell-based
Procedure: as §1, §2
Example compounds of formula I were examined for antibacterial activity against the Gram-positive bacterium Staphylococcus aureus strain LMG15975 using the above described method (Table 1).

[18] = test system: Citrobacter sp.; assay: MIC panel of Gram-negative bacteria (Table 7); assay type: cell-based; details: EN0465 Citrobacter sp. G− PKL 3710
[19] = test system: A. Pittii/nosocomialis; assay: MIC panel of Gram-negative bacteria (Table 7); assay type: cell-based; details: Acinetobacter pittii; EN0180 A. Pittii/nosocomialis G−
[20] = test system: S. epidermidis; assay: MIC panel of Gram-negative bacteria (Table 7); assay type: cell-based; details: Staphylococcus epidermidis; EN0456 S. epidermidis G+ PKL 3694
[21] = test system: Enterobacter aerogenes; assay: MIC panel of Gram-negative bacteria (Table 7); assay type: cell-based; details: Klebsiella aerogenes; EN0461 Enterobacter aerogenes G− PKL 3706
[22] = test system: M. frederiksbergense; assay: MIC by broth micro-dilution; assay type: cell-based; details: Table 4; read-out: MIC (μg/ml) M. frederiksbergense
Procedure: as §1, §2

[23] = test system: A. baumannii; assay: MIC by broth micro-dilution; assay type: cell-based; details: A. baumannii (G−), Table 2
Procedure: as §1, §2

[24] = test system: Bacillus cereus; assay: MIC by broth micro-dilution; assay type: cell-based; details: Table 4, read-out: MIC (μg/ml) B. cereus
Procedure: as §1, §2

[25] = test system: Proteus mirabilis; assay: MIC panel of Gram-negative bacteria (Table 7); assay type: cell-based

CCCCCCCCCC1CC(O)=C(C(=O)CCC)C(=O)O1 (stereo not drawn) [Ex. 1, 3-Butyryl-6-nonyl-4-hydroxy-5,6-dihydro-2H-pyran-2-one]
CC50 [1]: 38 µM
MIC ([2]; ATCC29213, S. aureus ATCC29213, QC strain, Table 5): 4 µg/mL (≈ 12.9 µM)
MIC ([2]; ATCC29213, S. aureus ATCC 29213, QC strain, Table 6): 4 µg/mL (≈ 12.9 µM)
MIC ([2]; MRSA, S. aureus PICI, Table 6): 4 µg/mL (≈ 12.9 µM)
MIC ([2]; MSSA, S. aureus MO 17, MSSA, Table 6): 2 µg/mL (≈ 6.44 µM)
MIC ([2]; S. aureus 6 Holland, Macrolide-resistant (M)): 1 µg/mL (≈ 3.22 µM)
MIC ([2]; S. aureus 56 Japan, Macrolide-resistant (MLSi)): 4 µg/mL (≈ 12.9 µM)
MIC ([2]; S. aureus 853E, Macrolide-sensitive): 2 µg/mL (≈ 6.44 µM)
MIC ([2]; S. aureus 4216, Tetracycline-resistant): 2 µg/mL (≈ 6.44 µM)
MIC ([2]; S. aureus 4384 (SSI), Methicillin-resistant): 2 µg/mL (≈ 6.44 µM)
MIC ([2]; S. aureus FR 131, Quinolone-resistant): 2 µg/mL (≈ 6.44 µM)
MIC ([2]; S. aureus MO17, Methicillin-sensitive, Table 5): 2 µg/mL (≈ 6.44 µM)
MIC ([2]; S. aureus PICI, Methicillin-resistant, Table 5): 4 µg/mL (≈ 12.9 µM)
MIC ([2]; S. aureus PK2, Macrolide-resistant (MLSc)): 2 µg/mL (≈ 6.44 µM)
MIC ([3]; EN001 E. coli WT, ENABLE Primary MIC panel): > 64 µg/mL
MIC ([3]; EN002 E. coli DtolC, ENABLE Primary MIC panel): 4 µg/mL (≈ 12.9 µM)
MIC ([3]; EN003 E. coli D22 (lps mut), ENABLE Primary MIC panel): > 64 µg/mL
MIC ([3]; EN0012 E. coli, ENABLE L2C MIC panel): > 64 µg/mL
MIC ([3]; EN0013 E. coli Del-tolC, ENABLE L2C MIC panel): 0.5 µg/mL (≈ 1.61 µM)
MIC ([3]; EN0458 E. coli B G− PKL 3698): > 64 µg/mL
MIC ([4]; EN004 P. aeruginosa WT, ENABLE Primary MIC panel): > 64 µg/mL
MIC ([4]; EN005 P. aeruginosa Efflux mut, ENABLE Primary MIC panel): 2 µg/mL (≈ 6.44 µM)
MIC ([4]; EN0014 P. aeruginosa, ENABLE L2C MIC panel): > 64 µg/mL
MIC ([4]; EN0015 P. aeruginosa Efflux mut, ENABLE L2C MIC panel): > 64 µg/mL
MIC ([4]; EN0422 P. aeruginosa G−): > 64 µg/mL
MIC ([4]; EN0459 P. aeruginosa G− PKL 3699): > 64 µg/mL
MIC ([4]; EN0460 P. aeruginosa G− PKL 3704): > 64 µg/mL
MIC ([5]; EN006 K. pneumoniae WT, ENABLE Primary MIC panel): > 64 µg/mL
MIC ([5]; EN0010 K. pneumoniae, ENABLE L2C MIC panel (isogenic efflux pairs)): > 64 µg/mL
MIC ([5]; EN0011 K. pneumoniae Efflux mut, ENABLE L2C MIC panel): 8 µg/mL (≈ 25.8 µM)
CC50 at 48 h [6]: 33 µM
MIC ([7]; MRSE, S. epidermidis TA12, MRSE, Table 6): 2 µg/mL (≈ 6.44 µM)
MIC ([7]; S. epidermidis RO7, MSSE, Table 6): 1 µg/mL (≈ 3.22 µM)
MIC ([7]; S. epidermis RO7, Methicillin-sensitive, Table 5): 1 µg/mL (≈ 3.22 µM)
MIC ([7]; S. epidermis TA12, Methicillin-resistant, Table 5): 2 µg/mL (≈ 6.44 µM)
MIC [8]: > 64 µg/mL
MIC ([9]; Acinetobacter baumannii, EN007 A. baumanii WT, ENABLE Primary MIC panel, read-out: MIC): > 64 µg/mL
MIC ([9]; EN0016 A. baumanii, ENABLE L2C MIC panel): >64 µg/mL
MIC ([9]; EN0017 A. baumanii Efflux mut, ENABLE L2C MIC panel): >64 µg/mL
MIC [10]: > 64 µg/mL
MIC [11]: ≤ 0.1 µg/mL
MIC [12]: 0.5 µg/mL (≈ 1.61 µM)
MIC ([13]; S. pyogenes 2 Finland, Macrolide-resistant (M)): 8 µg/mL (≈ 25.8 µM)
MIC ([13]; S. pyogenes 29A-TF, Macrolide- sensitive): 8 µg/mL (≈ 25.8 µM)
MIC ([13]; S. pyogenes 21 Finland, Macrolide-resistant (MLSc)): 8 µg/mL (≈ 25.8 µM)
Papp at 120 min, 10 μM [14]: 53 ×10⁻⁶ cm/s
MIC ([15]; E. faecium E.coc 7, Vancomycin -resistant, Table 6): 2 µg/mL (≈ 6.44 µM)
MIC ([15]; Enterococcus faecium, E. faecium 7, Vancomycin-resistant, Table 5, read-out: MIC): 2 µg/mL (≈ 6.44 µM)
MIC ([16]; E. faecalis E.cocco 12, Vancomycin -resistant): 2 µg/mL (≈ 6.44 µM)
MIC ([16]; E. faecalis E.cocco 24, Vancomycin -sensitive, Table 6): 2 µg/mL (≈ 6.44 µM)
MIC ([16]; E. faecalis 24, Vancomycin-sensitive, Table 5): 2 µg/mL (≈ 6.44 µM)
MIC ([17]; LMG15975, S. aureus (G+), Table 2, read-out: MIC (μg/ml) S. aureus): 0.8 µg/mL
MIC ([17]; LMG15975, S. aureus LMG 15975 (SLU), Methicillin-resistant, Table 5, read-out: MIC (μg/mL)): 0.8 µg/mL
MIC ([17]; LMG15975, S. aureus LMG15975, Table 1, read-out: MIC): 2.5 µM
MIC ([17]; LMG15975, S. aureus LMG15975, Table 1, read-out: MIC (μg/ml)): 0.8 µg/mL
MIC ([17]; LMG15975, Table 4, read-out: MIC (μg/ml) S. aureus): 0.8 µg/mL
MIC [18]: > 64 µg/mL
MIC [19]: > 64 µg/mL
MIC [20]: 1 µg/mL (≈ 3.22 µM)
MIC [21]: > 64 µg/mL
MIC [22]: ≤ 0.5 µg/mL
MIC (μg/ml) A. baumannii [23]: 8 to 16 µg/mL
MIC ([23]; Acinetobacter baumannii, read-out: MIC (μg/ml) A. baumannii): 16 to 24 µg/mL (≈ 51.5 to 77.3 µM)
MIC [24]: ≤ 1 µg/mL
MIC ([25]; EN0445 P. mirabilis ST19 G−): >64 µg/mL
MIC ([25]; EN0457 Proteus mirabilis G− PKL 3695, read-out: MIC): > 64 µg/mL
